Experimental data from PubChem BioAssay AID2060501 (Molecular Pharmacology Branch, DTP, NCI, 2025).

Tested on: 282377-053-R-J1-PDC complex spheroids, viability
Assay: Anticancer human tumor 282377-053-R-J1-PDC patient-derived colon adenocarcinoma cell line growth inhibition [GQUAD]
Conditions: for IC50: curve of first compound; for viability, T/C: stronger effect = lower value; active means viability on the fitted dose curve at most 10% of control; inactive means the rest
In short: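 Multi-cell-type spheroids of tumor cells with HUVEC and mesenchymal stem cells, treated with drug combinations. Concentrations descend in half-log steps from near clinical Cmax, or from 10 microM where Cmax is unknown; viability read-out.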

[1] = second compound 0.0316 µM, first compound 0.0316 µM
[2] = second compound 0.0316 µM, first compound 0.1 µM
[3] = second compound 0.0316 µM, first compound 0.316 µM
[4] = second compound 0.0316 µM, first compound 1 µM
[5] = second compound 0.0316 µM, first compound 3.16 µM
[6] = second compound 0.0316 µM, first compound 10 µM
[7] = second compound 0.1 µM, first compound 0.0316 µM
[8] = second compound 0.1 µM, first compound 0.1 µM
[9] = second compound 0.1 µM, first compound 0.316 µM
[10] = second compound 0.1 µM, first compound 1 µM
[11] = second compound 0.1 µM, first compound 3.16 µM
[12] = second compound 0.1 µM, first compound 10 µM
[13] = second compound 0.316 µM, first compound 0.0316 µM
[14] = second compound 0.316 µM, first compound 0.1 µM
[15] = second compound 0.316 µM, first compound 0.316 µM
[16] = second compound 0.316 µM, first compound 1 µM
[17] = second compound 0.316 µM, first compound 3.16 µM
[18] = second compound 0.316 µM, first compound 10 µM
[19] = second compound 1 µM, first compound 0.0316 µM
[20] = second compound 1 µM, first compound 0.1 µM
[21] = second compound 1 µM, first compound 0.316 µM
[22] = second compound 1 µM, first compound 1 µM
[23] = second compound 1 µM, first compound 3.16 µM
[24] = second compound 1 µM, first compound 10 µM
[25] = second compound 3.16 µM, first compound 0.0316 µM
[26] = second compound 3.16 µM, first compound 0.1 µM
[27] = second compound 3.16 µM, first compound 0.316 µM
[28] = second compound 3.16 µM, first compound 1 µM
[29] = second compound 3.16 µM, first compound 3.16 µM
[30] = second compound 3.16 µM, first compound 10 µM
[31] = second compound 10 µM, first compound 0.0316 µM
[32] = second compound 10 µM, first compound 0.1 µM
[33] = second compound 10 µM, first compound 0.316 µM
[34] = second compound 10 µM, first compound 1 µM
[35] = second compound 10 µM, first compound 3.16 µM
[36] = second compound 10 µM, first compound 10 µM
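Further: spheroids exposed to compounds for 7 days before readout.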
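Wherever viability, T/C is given: percent of vehicle DMSO control viability with 100% = untreated-like growth.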

COc1ccc([C@@H](O)c2cc(-c3ncnc4cc(N5CCOCC5)ccc34)c(F)cc2Cl)nn1 + CN(C)c1ccc(Nc2c3ccc(NC(=O)CCN4CCCC4)cc3nc3cc(NC(=O)CCN4CCCC4)ccc23)cc1
inactive: viability, T/C [1] 96.4% | viability, T/C [2] 92.5% | viability, T/C [3] 80.6% | viability, T/C [4] 71.3% | viability, T/C [5] 81.7% | viability, T/C [6] 64.9% | viability, T/C [7] 89.2% | viability, T/C [8] 75.3% | viability, T/C [9] 95% | viability, T/C [10] 72.8% | viability, T/C [11] 86.2% | viability, T/C [12] 60.1% | viability, T/C [13] 89.1% | viability, T/C [14] 81% | viability, T/C [15] 76.4% | viability, T/C [16] 78.2% | viability, T/C [17] 82.1% | viability, T/C [18] 48.3% | viability, T/C [19] 81.2% | viability, T/C [20] 83.2% | viability, T/C [21] 97.6% | viability, T/C [22] 62.4% | viability, T/C [23] 77.4% | viability, T/C [24] 66.6% | viability, T/C [25] 87.3% | viability, T/C [26] 83.8% | viability, T/C [27] 81.2% | viability, T/C [28] 85% | viability, T/C [29] 102% | viability, T/C [30] 61.3% | viability, T/C [31] 89.3% | viability, T/C [32] 72.6% | viability, T/C [33] 90.1% | viability, T/C [34] 74.5% | viability, T/C [35] 76.4% | viability, T/C [36] 79.4%
9.44 µM: IC50 (second compound 0.316 µM)
> 10 µM: IC50 (second compound 0.0316 µM) | IC50 (second compound 0.1 µM) | IC50 (second compound 1 µM) | IC50 (second compound 3.16 µM) | IC50 (second compound 10 µM)

Nc1ccn(C2OC(CO)C(O)C2(F)F)c(=O)n1 (stereo not drawn) + Cc1[nH]c2ccc(F)cc2c1-c1nc2c3cccnc3c3ncccc3c2[nH]1
0.216 µM: IC50 (second compound 0.316 µM)
0.222 µM: IC50 (second compound 0.1 µM)
0.081 µM: IC50 (second compound 3.16 µM)
< 0.0316 µM: IC50 (second compound 10 µM)
0.228 µM: IC50 (second compound 1 µM)
inactive: viability, T/C [1] 119% | viability, T/C [2] 74.1% | viability, T/C [3] 35.8% | viability, T/C [4] 30.9% | viability, T/C [5] 29.4% | viability, T/C [6] 21.1% | viability, T/C [7] 106% | viability, T/C [8] 81.1% | viability, T/C [9] 35.8% | viability, T/C [10] 29.5% | viability, T/C [11] 31.8% | viability, T/C [12] 18.9% | viability, T/C [13] 97% | viability, T/C [14] 86.3% | viability, T/C [15] 32% | viability, T/C [16] 28.4% | viability, T/C [17] 26.7% | viability, T/C [18] 20.5% | viability, T/C [19] 105% | viability, T/C [20] 74.4% | viability, T/C [21] 37.4% | viability, T/C [22] 30.1% | viability, T/C [23] 23% | viability, T/C [24] 16% | viability, T/C [25] 74.8% | viability, T/C [26] 44.5% | viability, T/C [27] 18.8% | viability, T/C [28] 14.9% | viability, T/C [29] 17.6% | viability, T/C [30] 9.41% | viability, T/C [31] 39.2% | viability, T/C [32] 28.9% | viability, T/C [33] 16.2% | viability, T/C [34] 10.3%
active: viability, T/C [35] 10.9% | viability, T/C [36] 8.65%
0.211 µM: IC50 (second compound 0.0316 µM)

COc1ncnc(C2CC2)c1-c1ncc2cnn(Cc3ccc(-c4nc(C(F)(F)F)cn4C(C)C)cc3)c2n1 + Cc1[nH]c2ccc(F)cc2c1-c1nc2c3cccnc3c3ncccc3c2[nH]1
5.93 µM: IC50 (second compound 0.1 µM)
5.9 µM: IC50 (second compound 0.316 µM)
5.46 µM: IC50 (second compound 1 µM)
3.36 µM: IC50 (second compound 10 µM)
4.13 µM: IC50 (second compound 3.16 µM)
active: viability, T/C [6] 5.07% | viability, T/C [12] 7.94% | viability, T/C [24] 6.2% | viability, T/C [30] 6.71% | viability, T/C [36] 5.55%
5.7 µM: IC50 (second compound 0.0316 µM)
inactive: viability, T/C [1] 97.6% | viability, T/C [2] 103% | viability, T/C [3] 91.9% | viability, T/C [4] 99.4% | viability, T/C [5] 97.1% | viability, T/C [7] 88.5% | viability, T/C [8] 107% | viability, T/C [9] 114% | viability, T/C [10] 110% | viability, T/C [11] 101% | viability, T/C [13] 103% | viability, T/C [14] 88.3% | viability, T/C [15] 111% | viability, T/C [16] 117% | viability, T/C [17] 96.3% | viability, T/C [18] 10.5% | viability, T/C [19] 97.1% | viability, T/C [20] 97.2% | viability, T/C [21] 113% | viability, T/C [22] 115% | viability, T/C [23] 89.5% | viability, T/C [25] 85.5% | viability, T/C [26] 79.5% | viability, T/C [27] 93.2% | viability, T/C [28] 82.6% | viability, T/C [29] 63.2% | viability, T/C [31] 48.1% | viability, T/C [32] 30.1% | viability, T/C [33] 76.9% | viability, T/C [34] 54.2% | viability, T/C [35] 53.4%

O=C(c1cc(Cc2n[nH]c(=O)c3ccccc23)ccc1F)N1CCN(C(=O)C2CC2)CC1 + Cc1[nH]c2ccc(F)cc2c1-c1nc2c3cccnc3c3ncccc3c2[nH]1
1.55 µM: IC50 (second compound 10 µM)
> 10 µM: IC50 (second compound 0.0316 µM) | IC50 (second compound 0.1 µM) | IC50 (second compound 0.316 µM) | IC50 (second compound 1 µM) | IC50 (second compound 3.16 µM)
inactive: viability, T/C [1] 134% | viability, T/C [2] 107% | viability, T/C [3] 102% | viability, T/C [4] 122% | viability, T/C [5] 110% | viability, T/C [6] 92% | viability, T/C [7] 87.8% | viability, T/C [8] 98.6% | viability, T/C [9] 99.2% | viability, T/C [10] 99.6% | viability, T/C [11] 105% | viability, T/C [12] 89% | viability, T/C [13] 92.8% | viability, T/C [14] 115% | viability, T/C [15] 101% | viability, T/C [16] 107% | viability, T/C [17] 97.1% | viability, T/C [18] 97% | viability, T/C [19] 101% | viability, T/C [20] 111% | viability, T/C [21] 122% | viability, T/C [22] 111% | viability, T/C [23] 110% | viability, T/C [24] 114% | viability, T/C [25] 75.4% | viability, T/C [26] 76.7% | viability, T/C [27] 93% | viability, T/C [28] 79.1% | viability, T/C [29] 69.8% | viability, T/C [30] 54.7% | viability, T/C [31] 58.2% | viability, T/C [32] 40.2% | viability, T/C [33] 71.9% | viability, T/C [34] 57.9% | viability, T/C [35] 38.4% | viability, T/C [36] 25.8%
